Read-outs that look alike come from different tables or passages of the source.
Key:
[1] = molecular target: human BCL6 BTB domain (Homo sapiens, UniProt P41182); test: BCL6 TR-FRET assay; type: binding
Experimental: 1. Supplementary experimental: protein production, purification and crystallography 1.1 BCL6 constructs used for assays and crystallography […]
cleavage site. For the TR-FRET assay, the Trx-6His-HRV3C-BCL6 protein construct was used without cleaving the tag, as a 6His was needed to bind to the anti-6His-Terbium antibody. […]
For both plasmid constructs described above, transformed BL21-AI E. coli cells were grown in LB media […]
Expression was carried out at 18 °C for 18 hours. Cells were harvested by centrifugation (5500 g for 30 minutes at 4 °C) and stored at -80 °C.
Cells were re-suspended in a buffer composed of 20 mM Tris pH 8, 250 mM NaCl, 1 mM MgCl2, 0.5 mM […]
lysed by sonication followed by centrifugation at 21,000 g for 45 minutes at 4 °C. […]
ResourceQ and gel filtration using a HiLoad 26/60 Superdex75 column in a buffer containing 20 mM HEPES […]
The final protein was assessed for purity and molar mass by SDS-PAGE and high-resolution mass spectrometry, respectively.
For the uncleaved Trx-6His-HRV3C-BCL6 protein construct to be used in TR-FRET, the protein was directly eluted from the HisTrap FF column without HRV-3C treatment, and submitted to Superdex75 gel filtration […]
Test compounds in DMSO or DMSO alone […]
concentration in 0.7% v/v DMSO final. […]

[2] = molecular target: T1, CCKAR (Homo sapiens, UniProt P32238); test: SAFETYscan Calcium Flux CCKAR Agonist; type: cell-based
T1 sequence (P32238 1-428): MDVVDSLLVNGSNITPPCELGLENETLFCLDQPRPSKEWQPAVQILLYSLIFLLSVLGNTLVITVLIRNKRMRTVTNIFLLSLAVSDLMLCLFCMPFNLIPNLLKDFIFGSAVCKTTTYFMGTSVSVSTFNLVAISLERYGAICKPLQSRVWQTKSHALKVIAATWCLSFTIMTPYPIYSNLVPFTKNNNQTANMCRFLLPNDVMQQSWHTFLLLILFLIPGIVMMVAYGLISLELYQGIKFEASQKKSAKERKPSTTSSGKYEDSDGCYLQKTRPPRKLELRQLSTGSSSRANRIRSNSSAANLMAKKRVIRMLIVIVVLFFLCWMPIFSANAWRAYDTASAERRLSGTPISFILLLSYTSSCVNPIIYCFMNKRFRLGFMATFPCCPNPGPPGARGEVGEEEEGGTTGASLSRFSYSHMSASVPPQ
Source text: (§1) Supplement jm3c00155_si_002.xlsx, sheet "SAFETYScan" | column: RC50 (uM); Max Response

[3] = molecular target: T2, CHRM1 (Homo sapiens, UniProt P11229); test: SAFETYscan Calcium Flux CHRM1 Agonist; type: cell-based
T2 sequence (P11229 1-460): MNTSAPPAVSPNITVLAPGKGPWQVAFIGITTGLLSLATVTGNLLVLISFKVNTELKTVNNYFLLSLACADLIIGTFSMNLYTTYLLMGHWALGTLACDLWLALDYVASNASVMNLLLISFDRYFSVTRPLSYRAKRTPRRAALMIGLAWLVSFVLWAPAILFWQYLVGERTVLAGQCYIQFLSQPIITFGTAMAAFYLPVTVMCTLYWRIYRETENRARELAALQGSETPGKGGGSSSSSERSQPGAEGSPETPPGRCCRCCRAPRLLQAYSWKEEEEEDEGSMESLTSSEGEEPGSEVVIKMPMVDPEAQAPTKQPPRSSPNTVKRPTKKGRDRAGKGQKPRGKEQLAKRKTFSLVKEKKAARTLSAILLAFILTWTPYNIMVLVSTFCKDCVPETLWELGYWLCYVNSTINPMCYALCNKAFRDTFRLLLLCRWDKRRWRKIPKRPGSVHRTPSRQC
Source text: as §1

[4] = molecular target: T3, ADRA2A (Homo sapiens, UniProt P08913); test: SAFETYscan cAMP ADRA2A Agonist; type: cell-based
T3 sequence (P08913 1-465): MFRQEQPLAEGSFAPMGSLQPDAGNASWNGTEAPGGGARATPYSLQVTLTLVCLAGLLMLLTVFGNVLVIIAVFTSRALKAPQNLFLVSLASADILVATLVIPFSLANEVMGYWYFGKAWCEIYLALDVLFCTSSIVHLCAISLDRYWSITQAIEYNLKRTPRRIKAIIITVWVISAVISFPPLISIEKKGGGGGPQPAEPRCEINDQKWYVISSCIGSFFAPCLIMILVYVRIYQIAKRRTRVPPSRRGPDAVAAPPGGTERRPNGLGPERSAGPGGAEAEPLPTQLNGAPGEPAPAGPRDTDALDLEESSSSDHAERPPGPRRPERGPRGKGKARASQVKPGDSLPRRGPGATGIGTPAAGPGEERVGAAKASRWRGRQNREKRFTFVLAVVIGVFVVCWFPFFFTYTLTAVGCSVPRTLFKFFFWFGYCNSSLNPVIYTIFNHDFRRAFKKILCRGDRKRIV
Source text: as §1

[5] = molecular target: ADRB2 (Homo sapiens, UniProt P07550); test: SAFETYscan cAMP ADRB2 Agonist; type: cell-based
Source text: as §1

[6] = molecular target: DRD2S (Homo sapiens, UniProt P14416); test: SAFETYscan cAMP DRD2S Agonist; type: cell-based
Source text: Supplement jm3c00155_si_002.xlsx, sheet "SAFETYScan" | column: RC50 (uM); Hill; Max Response

[7] = molecular target: HRH2 (Homo sapiens, UniProt P25021); test: SAFETYscan cAMP HRH2 Agonist; type: cell-based
Source text: as §1

[8] = molecular target: OPRK1 (Homo sapiens, UniProt P41145); test: SAFETYscan cAMP OPRK1 Agonist; type: cell-based
Source text: as §1

[9] = molecular target: OPRD1 (Homo sapiens, UniProt P41143); test: SAFETYscan cAMP OPRD1 Antagonist; type: cell-based
Source text: as §1

[10] = molecular target: nAChR(a4/b2) (Homo sapiens, UniProt P17787+P43681); test: SAFETYscan Ion Channel nAChR(a4/b2) Opener; type: cell-based
Source text: as §1

[11] = molecular target: LCK (Homo sapiens, UniProt P06239); test: SAFETYscan Kinases Binding LCK Inhibitor
Source text: as §1

[12] = molecular target: AChE (Homo sapiens, UniProt P22303); test: SAFETYscan Enzymatic AChE Inhibitor; type: biochemical
Source text: as §1

[13] = molecular target: DAT (Homo sapiens, UniProt Q01959); test: SAFETYscan Transporter DAT Blocker; type: cell-based
Source text: as §1

DRD2S, sequence (P14416 1-414 isoform P14416-2): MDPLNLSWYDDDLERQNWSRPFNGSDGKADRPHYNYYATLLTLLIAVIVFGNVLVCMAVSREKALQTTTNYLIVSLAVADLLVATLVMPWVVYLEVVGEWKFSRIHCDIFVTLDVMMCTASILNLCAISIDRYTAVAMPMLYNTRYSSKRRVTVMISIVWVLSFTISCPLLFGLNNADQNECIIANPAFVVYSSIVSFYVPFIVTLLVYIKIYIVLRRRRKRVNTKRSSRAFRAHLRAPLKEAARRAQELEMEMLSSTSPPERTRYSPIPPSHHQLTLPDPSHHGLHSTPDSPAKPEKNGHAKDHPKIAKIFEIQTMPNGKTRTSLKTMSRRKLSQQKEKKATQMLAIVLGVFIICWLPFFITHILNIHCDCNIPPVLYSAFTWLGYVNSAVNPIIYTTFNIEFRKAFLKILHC
ADRB2, sequence (P07550 whole entry): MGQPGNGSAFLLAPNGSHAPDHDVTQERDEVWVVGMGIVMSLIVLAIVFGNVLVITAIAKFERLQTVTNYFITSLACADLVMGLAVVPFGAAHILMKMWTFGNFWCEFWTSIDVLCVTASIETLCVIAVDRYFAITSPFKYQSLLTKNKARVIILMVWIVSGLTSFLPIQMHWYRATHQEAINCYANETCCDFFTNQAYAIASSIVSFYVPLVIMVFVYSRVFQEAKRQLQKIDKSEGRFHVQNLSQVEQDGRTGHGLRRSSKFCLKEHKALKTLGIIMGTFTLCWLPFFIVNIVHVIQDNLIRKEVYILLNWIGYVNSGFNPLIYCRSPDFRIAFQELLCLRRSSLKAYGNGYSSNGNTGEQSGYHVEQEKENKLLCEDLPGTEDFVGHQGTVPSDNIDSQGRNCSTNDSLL
OPRK1, sequence (P41145 whole entry): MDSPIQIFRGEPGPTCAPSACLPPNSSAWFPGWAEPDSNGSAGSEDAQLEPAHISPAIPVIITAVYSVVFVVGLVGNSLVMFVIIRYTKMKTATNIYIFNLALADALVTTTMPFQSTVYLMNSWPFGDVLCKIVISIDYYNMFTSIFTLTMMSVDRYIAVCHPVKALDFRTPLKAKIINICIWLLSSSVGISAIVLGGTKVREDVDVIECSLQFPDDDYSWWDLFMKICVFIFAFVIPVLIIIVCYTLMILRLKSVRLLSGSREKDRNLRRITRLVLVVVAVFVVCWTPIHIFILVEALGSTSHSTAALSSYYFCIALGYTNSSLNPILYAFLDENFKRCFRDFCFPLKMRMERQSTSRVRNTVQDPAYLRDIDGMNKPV
OPRD1, sequence (P41143 whole entry): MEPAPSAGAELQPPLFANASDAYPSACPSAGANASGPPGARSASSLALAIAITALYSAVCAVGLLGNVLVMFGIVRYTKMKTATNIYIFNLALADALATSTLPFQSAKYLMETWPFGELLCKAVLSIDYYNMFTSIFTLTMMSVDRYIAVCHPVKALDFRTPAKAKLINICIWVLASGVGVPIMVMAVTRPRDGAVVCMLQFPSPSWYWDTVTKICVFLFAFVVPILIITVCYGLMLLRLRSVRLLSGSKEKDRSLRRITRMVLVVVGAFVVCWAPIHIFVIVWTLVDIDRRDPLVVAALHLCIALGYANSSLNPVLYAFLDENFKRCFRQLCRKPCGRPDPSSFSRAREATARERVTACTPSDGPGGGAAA
DAT, sequence (Q01959 whole entry, species assumed): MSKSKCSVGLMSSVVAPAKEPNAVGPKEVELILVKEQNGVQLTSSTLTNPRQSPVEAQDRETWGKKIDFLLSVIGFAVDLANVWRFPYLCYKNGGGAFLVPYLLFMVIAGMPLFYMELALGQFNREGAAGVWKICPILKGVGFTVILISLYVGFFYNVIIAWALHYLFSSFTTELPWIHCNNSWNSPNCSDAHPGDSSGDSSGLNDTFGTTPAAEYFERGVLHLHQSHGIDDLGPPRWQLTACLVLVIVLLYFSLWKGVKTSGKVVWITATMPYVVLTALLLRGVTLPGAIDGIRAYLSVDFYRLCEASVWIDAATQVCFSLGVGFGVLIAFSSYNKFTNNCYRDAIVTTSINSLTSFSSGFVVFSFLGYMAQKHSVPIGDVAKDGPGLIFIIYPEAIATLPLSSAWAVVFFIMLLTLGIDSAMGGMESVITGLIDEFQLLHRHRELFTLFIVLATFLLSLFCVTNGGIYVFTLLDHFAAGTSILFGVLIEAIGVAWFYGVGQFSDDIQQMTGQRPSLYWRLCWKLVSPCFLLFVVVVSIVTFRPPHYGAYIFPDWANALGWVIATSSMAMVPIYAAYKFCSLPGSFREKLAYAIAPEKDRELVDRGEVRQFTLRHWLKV
HRH2, sequence (P25021 whole entry): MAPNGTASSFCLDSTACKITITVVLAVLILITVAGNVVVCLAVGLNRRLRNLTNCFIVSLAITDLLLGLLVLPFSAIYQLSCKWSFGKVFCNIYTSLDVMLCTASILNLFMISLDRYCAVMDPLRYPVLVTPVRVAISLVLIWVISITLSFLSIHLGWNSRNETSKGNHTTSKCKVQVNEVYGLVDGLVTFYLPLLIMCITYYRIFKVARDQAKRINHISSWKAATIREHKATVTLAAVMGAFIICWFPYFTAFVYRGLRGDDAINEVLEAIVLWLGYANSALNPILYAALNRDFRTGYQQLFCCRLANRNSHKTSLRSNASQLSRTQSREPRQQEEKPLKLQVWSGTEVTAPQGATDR
nAChR(a4/b2), sequence (P43681 29-627 limits assumed): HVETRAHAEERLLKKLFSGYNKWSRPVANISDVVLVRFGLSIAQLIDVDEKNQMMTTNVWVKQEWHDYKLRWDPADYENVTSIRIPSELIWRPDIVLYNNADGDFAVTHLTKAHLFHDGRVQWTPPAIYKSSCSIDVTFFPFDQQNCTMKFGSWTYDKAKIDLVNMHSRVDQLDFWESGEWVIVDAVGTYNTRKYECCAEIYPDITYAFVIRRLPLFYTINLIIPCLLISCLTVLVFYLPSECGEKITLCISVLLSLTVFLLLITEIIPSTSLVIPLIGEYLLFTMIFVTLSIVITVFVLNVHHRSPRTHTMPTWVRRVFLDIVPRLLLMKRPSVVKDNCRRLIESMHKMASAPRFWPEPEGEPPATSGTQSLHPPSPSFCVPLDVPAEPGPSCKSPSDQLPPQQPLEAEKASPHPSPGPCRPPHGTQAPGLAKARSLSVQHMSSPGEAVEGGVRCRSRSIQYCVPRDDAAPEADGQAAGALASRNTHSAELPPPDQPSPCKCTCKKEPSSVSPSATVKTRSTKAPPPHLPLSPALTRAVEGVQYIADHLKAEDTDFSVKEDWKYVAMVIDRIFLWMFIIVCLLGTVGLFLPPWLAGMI
nAChR(a4/b2), sequence (P17787 26-502): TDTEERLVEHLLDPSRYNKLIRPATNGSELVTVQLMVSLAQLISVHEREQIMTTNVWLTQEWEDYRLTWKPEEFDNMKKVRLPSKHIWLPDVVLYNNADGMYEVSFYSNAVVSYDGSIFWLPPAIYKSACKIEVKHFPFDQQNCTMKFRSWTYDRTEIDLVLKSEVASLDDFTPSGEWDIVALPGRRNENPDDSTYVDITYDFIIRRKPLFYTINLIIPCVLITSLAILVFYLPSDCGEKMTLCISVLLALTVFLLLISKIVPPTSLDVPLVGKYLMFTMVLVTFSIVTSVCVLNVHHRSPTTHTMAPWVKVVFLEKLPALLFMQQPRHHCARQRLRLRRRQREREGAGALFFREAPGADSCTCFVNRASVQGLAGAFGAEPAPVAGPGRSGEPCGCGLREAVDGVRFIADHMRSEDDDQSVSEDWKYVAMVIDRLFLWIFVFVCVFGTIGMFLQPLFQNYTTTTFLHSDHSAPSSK
LCK, sequence (P06239 whole entry): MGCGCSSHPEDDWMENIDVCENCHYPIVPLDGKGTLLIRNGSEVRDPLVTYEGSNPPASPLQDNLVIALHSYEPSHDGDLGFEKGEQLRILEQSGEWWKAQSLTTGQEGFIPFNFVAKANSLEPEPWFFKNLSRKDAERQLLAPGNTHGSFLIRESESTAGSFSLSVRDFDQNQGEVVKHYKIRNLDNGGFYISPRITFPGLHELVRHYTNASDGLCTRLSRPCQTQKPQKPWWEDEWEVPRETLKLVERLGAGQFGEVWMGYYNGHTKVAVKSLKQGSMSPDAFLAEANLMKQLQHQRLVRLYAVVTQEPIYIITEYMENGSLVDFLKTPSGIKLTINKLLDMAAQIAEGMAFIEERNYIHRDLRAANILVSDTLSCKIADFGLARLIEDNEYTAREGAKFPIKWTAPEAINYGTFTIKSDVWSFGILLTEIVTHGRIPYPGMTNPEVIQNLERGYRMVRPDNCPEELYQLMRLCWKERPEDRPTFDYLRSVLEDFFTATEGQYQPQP
AChE, sequence (P22303 32-614): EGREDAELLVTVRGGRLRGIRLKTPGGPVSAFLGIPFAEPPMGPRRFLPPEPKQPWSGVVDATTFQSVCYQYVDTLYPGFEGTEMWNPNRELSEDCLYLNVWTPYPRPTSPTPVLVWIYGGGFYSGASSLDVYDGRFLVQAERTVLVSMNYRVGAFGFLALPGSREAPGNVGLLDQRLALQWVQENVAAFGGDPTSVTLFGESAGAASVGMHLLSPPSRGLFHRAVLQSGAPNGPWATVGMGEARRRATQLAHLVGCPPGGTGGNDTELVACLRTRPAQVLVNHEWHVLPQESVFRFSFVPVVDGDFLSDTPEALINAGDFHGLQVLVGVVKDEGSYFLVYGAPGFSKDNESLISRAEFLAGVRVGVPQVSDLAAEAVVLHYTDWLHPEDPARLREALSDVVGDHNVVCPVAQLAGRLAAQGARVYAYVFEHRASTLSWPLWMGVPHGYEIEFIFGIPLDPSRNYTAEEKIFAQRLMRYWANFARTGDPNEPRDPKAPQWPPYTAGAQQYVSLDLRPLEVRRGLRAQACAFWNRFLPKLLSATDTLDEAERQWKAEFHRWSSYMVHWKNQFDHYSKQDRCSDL

## Cn1c(=O)c2c(c3cc(Nc4ccnc(F)c4Cl)ccc31)N[C@@H](C1CC1)C(F)(F)CO2 [compound 17, (S)-10-((3-chloro-2-fluoropyridin-4-yl)amino)-2-cyclopropyl-3,3-difluoro-7-methyl-1,2,3,4-tetrahydro-[1,4]oxazepino[2,3-c]quinolin-6(7H)-one]
[1]; Table S1
  BCL6 TR-FRET pIC50 mean: 8.2095
[1]; Table S1, read-out: BCL6 TR-FRET IC90 Geometric Mean
  IC90: 0.0567 µM
[1]; geometric mean of at least three replicates, read-out: BCL6 TR-FRET IC50
  IC50: 0.006 µM
[1]; supplement, read-out: BCL6 TR-FRET IC50 Geometric Mean
  IC50: 0.0062 µM
[2]; read-out: Max Response
  Emax: 0.06%
[2]; read-out: RC50 (EC50)
  EC50: > 10 µM
[3]
  EC50: > 10 µM
[3]; CHRM1, Calcium Flux, Agonist, read-out: Max Response
  Emax: 1.44%
[4]
  EC50: > 10 µM
[4]; ADRA2A, cAMP, Agonist, read-out: Max Response
  Emax: 38.9%
[5]; read-out: Max Response
  Emax: 0%
[5]; read-out: RC50 (EC50)
  EC50: > 10 µM
[6]
  EC50: 3.5 µM
[6]; DRD2S, cAMP, Agonist
  Hill: 1.25
[6]; DRD2S, cAMP, Agonist, read-out: Max Response
  Emax: 72.1%
[7]; read-out: Max Response
  Emax: 0%
[7]; read-out: RC50 (EC50)
  EC50: > 10 µM
[8]
  EC50: > 10 µM
[8]; OPRK1, cAMP, Agonist, read-out: Max Response
  Emax: 21.1%
[9]
  IC50: > 10 µM
[9]; OPRD1, cAMP, Antagonist, read-out: Max Response
  Emax: 46%
[10]
  EC50: > 10 µM
[10]; nAChR(a4/b2), Ion Channel, Opener, read-out: Max Response
  Emax: 3.37%
[11]; read-out: Max Response
  Emax: 0.08%
[11]; read-out: RC50 (IC50)
  IC50: > 10 µM
[12]; read-out: Max Response
  Emax: 9.89%
[12]; read-out: RC50 (IC50)
  IC50: > 10 µM
[13]
  IC50: > 10 µM
[13]; DAT, Transporter, Blocker, read-out: Max Response
  Emax: 0%

Source: article PMC10150366, “Discovery of an In Vivo Chemical Probe for BCL6 Inhibition by Optimization of Tricyclic Quinolinones” (Journal of Medicinal Chemistry, 2023)
